{"source": "PubChem BioAssay AID328", "about": "(DTP/NCI, 2004)", "tested_on": "BDF1 mice, P388 leukemia ip, median survival T/C", "experiment": "NCI In Vivo Anticancer Drug Screen. Data for tumor model P388 Leukemia (intraperitoneal) in B6D2F1 (BDF1) mice", "conditions": "endpoint: median survival time, higher = longer survival", "outline": "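Vehicle-dosed animals serve as the reference; survival of compound-dosed, tumour-implanted mice is divided by it.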", "key": {"[1]": {"conditions": "dose: 25.0 mg/kg/injection, schedule: Q01DX009 (ip), vehicle: water"}, "[2]": {"conditions": "dose: 100.0 mg/kg/injection, schedule: Q04DX003 (ip), vehicle: water"}, "[3]": {"conditions": "dose: 200.0 mg/kg/injection, schedule: Q04DX003 (ip), vehicle: water"}}, "note": "Values joined by “and” are separate entries in the source; they are usually repeats but may differ in a detail not shown here. Identical values can stand only once. Inconclusive results and toxic doses are left out.", "data": [{"smiles": "Cc1ccc(S(=O)(=O)OCCN(CCOS(=O)(=O)c2ccc(C)cc2)c2ccc(C=O)cc2)cc1", "values": [{"measurement": "T/C", "setting": "dose: 66.0 mg/kg/injection, schedule: Q04DX003 (ip), vehicle: saline with Tween-80", "result": "191 % of control"}, {"measurement": "T/C", "setting": "dose: 100.0 mg/kg/injection, schedule: Q04DX003 (ip), vehicle: saline with Tween-80", "result": "250 % of control"}, {"measurement": "T/C", "setting": "dose: 150.0 mg/kg/injection, schedule: Q04DX003 (ip), vehicle: saline with Tween-80", "result": "204 % of control"}]}, {"smiles": "ClC1=C(Cl)C(Cl)=C(Cl)C1=NN=C1C(Cl)=C(Cl)C(Cl)=C1Cl", "values": [{"measurement": "T/C", "setting": "dose: 50.0 mg/kg/injection, schedule: Q01DX001 (ip), vehicle: saline with Tween-80", "result": "100 % of control"}, {"measurement": "T/C", "setting": "dose: 100.0 mg/kg/injection, schedule: Q01DX001 (ip), vehicle: saline with Tween-80", "result": "95 % of control"}, {"measurement": "T/C", "setting": "dose: 200.0 mg/kg/injection, schedule: Q01DX001 (ip), vehicle: saline with Tween-80", "result": "90 % of control"}]}, {"smiles": "CCN(CC)c1ccc(/C=C/c2ccnc3ccccc23)cc1", "values": [{"measurement": "T/C", "setting": "dose: 1.56 mg/kg/injection, schedule: Q01DX009 (ip), vehicle: saline with Tween-80", "result": "95 % of control"}, {"measurement": "T/C", "setting": "dose: 3.13 mg/kg/injection, schedule: Q01DX009 (ip), vehicle: saline with Tween-80", "result": "105 % of control"}, {"measurement": "T/C", "setting": "dose: 6.25 mg/kg/injection, schedule: Q01DX009 (ip), vehicle: saline with Tween-80", "result": "90 % of control"}]}, {"smiles": "CS(=O)(=O)Nc1ccc(Nc2c3ccccc3nc3cc(Cl)ccc23)cc1", "values": [{"measurement": "T/C", "setting": "dose: 9.6 mg/kg/injection, schedule: Q04DX003 (ip), vehicle: Klucel (hydroxypropylcellulose) (HPC)", "result": "100 % of control"}, {"measurement": "T/C", "setting": "dose: 14.0 mg/kg/injection, schedule: Q04DX003 (ip), vehicle: Klucel (hydroxypropylcellulose) (HPC)", "result": "104 % of control"}, {"measurement": "T/C", "setting": "dose: 132.0 mg/kg/injection, schedule: Q04DX003 (ip), vehicle: saline", "result": "260 % of control and 195 % of control"}, {"measurement": "T/C", "setting": "dose: 200.0 mg/kg/injection, schedule: Q04DX003 (ip), vehicle: saline", "result": "272 % of control and 205 % of control"}, {"measurement": "T/C", "setting": "dose: 300.0 mg/kg/injection, schedule: Q04DX003 (ip), vehicle: saline", "result": "259 % of control"}]}, {"smiles": "O=C(O)c1c[nH]c2nccnc12", "values": [{"measurement": "T/C", "setting": "[1]", "result": "98 % of control"}, {"measurement": "T/C", "setting": "dose: 25.0 mg/kg/injection, schedule: Q04DX003 (ip), vehicle: water", "result": "103 % of control"}, {"measurement": "T/C", "setting": "dose: 50.0 mg/kg/injection, schedule: Q04DX003 (ip), vehicle: water", "result": "99 % of control"}, {"measurement": "T/C", "setting": "dose: 100.0 mg/kg/injection, schedule: Q01DX009 (ip), vehicle: water", "result": "88 % of control"}, {"measurement": "T/C", "setting": "[2]", "result": "103 % of control"}, {"measurement": "T/C", "setting": "[3]", "result": "103 % of control"}, {"measurement": "T/C", "setting": "dose: 400.0 mg/kg/injection, schedule: Q04DX003 (ip), vehicle: water", "result": "92 % of control"}]}, {"smiles": "CS(=O)(=O)OCCF", "values": [{"measurement": "T/C", "setting": "dose: 1.5 mg/kg/injection, schedule: Q01DX009 (ip), vehicle: saline with Tween-80", "result": "100 % of control"}, {"measurement": "T/C", "setting": "dose: 1.5 mg/kg/injection, schedule: Q04DX003 (ip), vehicle: saline", "result": "104 % of control"}, {"measurement": "T/C", "setting": "dose: 3.0 mg/kg/injection, schedule: Q01DX009 (ip), vehicle: saline with Tween-80", "result": "100 % of control"}, {"measurement": "T/C", "setting": "dose: 3.0 mg/kg/injection, schedule: Q04DX003 (ip), vehicle: saline", "result": "109 % of control"}]}, {"smiles": "COc1cc(C(=O)N2CCN(c3ccccc3)CC2)c2ccccc2n1", "values": [{"measurement": "T/C", "setting": "dose: 180.0 mg/kg/injection, schedule: Q01DX010 (ip), vehicle: carboxymethylcellulose (CMC)", "result": "114 % of control"}, {"measurement": "T/C", "setting": "dose: 266.0 mg/kg/injection, schedule: Q01DX010 (ip), vehicle: carboxymethylcellulose (CMC)", "result": "104 % of control"}, {"measurement": "T/C", "setting": "dose: 400.0 mg/kg/injection, schedule: Q01DX010 (ip), vehicle: carboxymethylcellulose (CMC)", "result": "104 % of control"}, {"measurement": "T/C", "setting": "dose: 600.0 mg/kg/injection, schedule: Q01DX010 (ip), vehicle: carboxymethylcellulose (CMC)", "result": "95 % of control"}]}, {"smiles": "COc1ccc2c(c1)CC[C@@H]1[C@@H]2CC[C@@]2(C)[C@H]1CC[C@@]2(O)C(F)=C(F)F", "values": [{"measurement": "T/C", "setting": "dose: 50.0 mg/kg/injection, schedule: Q01DX009 (ip), vehicle: saline with Tween-80", "result": "118 % of control"}, {"measurement": "T/C", "setting": "dose: 100.0 mg/kg/injection, schedule: Q01DX009 (ip), vehicle: saline with Tween-80", "result": "113 % of control"}, {"measurement": "T/C", "setting": "dose: 200.0 mg/kg/injection, schedule: Q01DX009 (ip), vehicle: saline with Tween-80", "result": "104 % of control"}]}, {"smiles": "CCCC1CC[N-]CC1.CCCC1CC[N-]CC1.[Cl][Pd][Cl]", "values": [{"measurement": "T/C", "setting": "dose: 12.5 mg/kg/injection, schedule: Q04DX003 (ip), vehicle: water", "result": "95 % of control"}, {"measurement": "T/C", "setting": "[1]", "result": "114 % of control"}, {"measurement": "T/C", "setting": "dose: 50.0 mg/kg/injection, schedule: Q01DX009 (ip), vehicle: water", "result": "114 % of control"}, {"measurement": "T/C", "setting": "[2]", "result": "90 % of control and 112 % of control and 120 % of control"}, {"measurement": "T/C", "setting": "[3]", "result": "95 % of control and 99 % of control and 120 % of control"}, {"measurement": "T/C", "setting": "dose: 300.0 mg/kg/injection, schedule: Q04DX003 (ip), vehicle: water", "result": "96 % of control"}]}, {"smiles": "CCCCCCCCCCCCSCCCCSCCCCCCCCCCCC", "values": [{"measurement": "T/C", "setting": "dose: 100.0 mg/kg/injection, schedule: Q01DX001 (ip), vehicle: saline sonified", "result": "100 % of control"}, {"measurement": "T/C", "setting": "dose: 200.0 mg/kg/injection, schedule: Q01DX001 (ip), vehicle: saline sonified", "result": "86 % of control"}]}, {"smiles": "CC1(C)N=C(N)N=C(N)N1c1cccc(OCCOc2ccc([N+](=O)[O-])cc2)c1", "values": [{"measurement": "T/C", "setting": "dose: 50.0 mg/kg/injection, schedule: Q01DX009 (ip), vehicle: saline sonified", "result": "110 % of control"}, {"measurement": "T/C", "setting": "dose: 50.0 mg/kg/injection, schedule: Q04DX003 (ip), vehicle: saline sonified", "result": "100 % of control"}, {"measurement": "T/C", "setting": "dose: 100.0 mg/kg/injection, schedule: Q01DX009 (ip), vehicle: saline sonified", "result": "160 % of control"}, {"measurement": "T/C", "setting": "dose: 100.0 mg/kg/injection, schedule: Q04DX003 (ip), vehicle: saline sonified", "result": "107 % of control"}, {"measurement": "T/C", "setting": "dose: 200.0 mg/kg/injection, schedule: Q04DX003 (ip), vehicle: saline sonified", "result": "107 % of control"}]}]}
